Test results taken from US20010039287A1, “AROMATIC SULFONE HYDROXAMIC ACID METALLOPROTEASE INHIBITOR” (priority 1997, published 2001).
Counter-ions that a name gives are not always drawn. Like-named read-outs stand apart in the source and are kept apart here.

Experiments:
Assay in all cases: biochemical
recombinant human MMP-2 = target: T1, recombinant human MMP-2 (Homo sapiens, UniProt P08253)
T1 sequence (P08253 110-660): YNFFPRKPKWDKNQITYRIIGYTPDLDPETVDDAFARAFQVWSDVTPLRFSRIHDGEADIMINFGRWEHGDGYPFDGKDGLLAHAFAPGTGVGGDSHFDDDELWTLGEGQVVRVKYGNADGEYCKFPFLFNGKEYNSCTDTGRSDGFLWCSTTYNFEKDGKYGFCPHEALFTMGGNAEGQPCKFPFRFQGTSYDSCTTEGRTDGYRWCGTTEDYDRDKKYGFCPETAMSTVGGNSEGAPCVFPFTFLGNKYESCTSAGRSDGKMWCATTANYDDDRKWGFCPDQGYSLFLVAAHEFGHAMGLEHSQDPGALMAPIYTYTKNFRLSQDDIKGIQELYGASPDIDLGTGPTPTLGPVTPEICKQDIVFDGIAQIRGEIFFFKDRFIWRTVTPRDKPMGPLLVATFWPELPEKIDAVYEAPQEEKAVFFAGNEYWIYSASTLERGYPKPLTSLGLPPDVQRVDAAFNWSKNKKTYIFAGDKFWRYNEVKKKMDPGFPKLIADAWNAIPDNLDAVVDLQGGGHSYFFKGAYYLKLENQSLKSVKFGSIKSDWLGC

recombinant human MMP-1 = target: T2, recombinant human MMP-1 (Homo sapiens, UniProt P03956); details: read-out: MMP-1 IC50
T2 construct: made in house; host or cells: transfected HT-1080 cells (provided by Dr. Harold Welgus, Washington University)
T2 sequence (P03956 100-469): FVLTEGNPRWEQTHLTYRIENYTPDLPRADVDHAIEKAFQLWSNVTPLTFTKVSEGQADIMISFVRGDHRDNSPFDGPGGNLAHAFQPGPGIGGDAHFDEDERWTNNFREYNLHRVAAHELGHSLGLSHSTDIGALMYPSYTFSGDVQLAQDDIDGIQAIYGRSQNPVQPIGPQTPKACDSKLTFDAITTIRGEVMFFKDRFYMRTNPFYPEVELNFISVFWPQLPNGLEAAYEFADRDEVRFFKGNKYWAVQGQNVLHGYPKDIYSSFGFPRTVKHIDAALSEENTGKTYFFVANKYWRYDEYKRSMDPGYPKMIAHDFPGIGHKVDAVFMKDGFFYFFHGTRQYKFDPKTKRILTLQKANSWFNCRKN

recombinant human MMP-13 = recombinant human MMP-13 (Homo sapiens, UniProt P45452)
[1] = Inhibition Table A, read-out: MMP-2 IC50
[2] = Inhibition Table A, read-out: MMP-13 IC50
[3] = Inhibition Table B, read-out: MMP-2 IC50
[4] = Inhibition Table B, read-out: MMP-13 IC50

| Structure (SMILES) | IC50 (recombinant human MMP-1; Inhibition Table A) [nM] | IC50 (recombinant human MMP-2; [3]) [nM] | IC50 (recombinant human MMP-1; Inhibition Table B) [nM] | IC50 (recombinant human MMP-13; [4]) [nM] | further results |
| --- | --- | --- | --- | --- | --- |
| CC(C)(C)OC(=O)N1CCC(C(=O)NO)(S(=O)(=O)c2ccc(Oc3ccccc3)cc2)CC1 [Example 3] | 1140 |  |  |  | IC50 (recombinant human MMP-2; [1]): 0.2 nM; IC50 (recombinant human MMP-13; [2]): 0.3 nM |
| O=C(NO)/C(=C\c1ccccc1)S(=O)(=O)c1ccc(Oc2ccccc2)cc1 [Example 5] | > 10000 |  |  |  | IC50 (recombinant human MMP-2; [1]): 1800 nM; IC50 (recombinant human MMP-13; [2]): 4800 nM |
| O=C(CS(=O)(=O)c1ccc(NC(=O)c2ccccc2)cc1)NO [Example 7] | > 10000 |  |  |  | IC50 (recombinant human MMP-2; [1]): 1.8 nM |
| O=C(Nc1ccc(S(=O)(=O)C2(C(=O)NO)CCNCC2)cc1)c1ccccc1 [Example 8] | > 10000 |  |  |  | IC50 (recombinant human MMP-13; [2]): 24.1 nM |
| O=C(NO)C1(S(=O)(=O)c2ccc(N3CCC(c4ccccc4)CC3)cc2)CCOCC1 [Example 11] | > 10000 |  |  |  | IC50 (recombinant human MMP-2; MMP-2 IC50 (nM)): 4.4 nM; IC50 (recombinant human MMP-13; [2]): 6 nM |
| CN1CCC(C(=O)NO)(S(=O)(=O)c2ccc(Oc3ccccc3)cc2)CC1 [Example 14] | 464 |  |  |  | IC50 (recombinant human MMP-2; [1]): < 0.1 nM; IC50 (recombinant human MMP-13; [2]): 0.1 nM |
| CS(=O)(=O)N1CCC(C(=O)NO)(S(=O)(=O)c2ccc(Oc3ccccc3)cc2)CC1 [Example 18] | 800 |  |  |  | IC50 (recombinant human MMP-2; MMP-2 IC50 (nM)): 0.3 nM; IC50 (recombinant human MMP-13): 0.5 nM |
| O=C(NO)C1(S(=O)(=O)c2ccc(SC3CCCCC3)cc2)CCNCC1 [Example 19] | > 10000 |  |  |  | IC50 (recombinant human MMP-2; [1]): 13.9 nM; IC50 (recombinant human MMP-13; [2]): 9 nM |
| O=C(NO)C1(S(=O)(=O)c2ccc(N3CCN(c4ccccc4)CC3)cc2)CCOCC1 [Example 20] | 10000 |  |  |  | IC50 (recombinant human MMP-2; MMP-2 IC50 (nM)): 23.5 nM; IC50 (recombinant human MMP-13; [2]): 1.7 nM |
| O=C(NO)C1(S(=O)(=O)c2ccc(Sc3ccc(F)cc3)cc2)CCNCC1 [Example 22] | > 10000 |  |  |  | IC50 (recombinant human MMP-2; [1]): 0.9 nM; IC50 (recombinant human MMP-13; [2]): 1.2 nM |
| C#CCN1CCC(C(=O)NO)(S(=O)(=O)c2ccc(Oc3ccc(-n4ccnc4)cc3)cc2)CC1 [Example 23] | 2280 |  |  |  | IC50 (recombinant human MMP-2; [1]): < 0.1 nM; IC50 (recombinant human MMP-13; [2]): 0.2 nM |
| O=C(NO)C1(S(=O)(=O)c2ccc(Sc3ccc(Cl)cc3)cc2)CCOCC1 [Example 25] | > 10000 |  |  |  | IC50 (recombinant human MMP-2; [1]): 2.6 nM; IC50 (recombinant human MMP-13; [2]): 3 nM |
| C=CCN1CCC(C(=O)NO)(S(=O)(=O)c2ccc(Sc3ccccc3)cc2)CC1 [Example 28] | 770 |  |  |  | IC50 (recombinant human MMP-2; [1]): < 0.1 nM; IC50 (recombinant human MMP-13; [2]): < 0.1 nM |
| O=C(NO)C1(S(=O)(=O)c2ccc(Oc3ccccc3)cc2)CCN(CC2CC2)CC1 [Example 29] | > 10000 |  |  |  | IC50 (recombinant human MMP-2; [1]): 0.15 nM; IC50 (recombinant human MMP-13): 0.3 nM |
| O=C(CN1CCCC1)N1CCC(C(=O)NO)(S(=O)(=O)c2ccc(Oc3ccccc3)cc2)CC1 [Example 31, N-hydroxy-4-[(4-phenoxyphenyl)sulfonyl]-1-(1-pyrrolidinylacetyl)-4-piperidine Carboxamide, Monohydrochloride] |  | < 0.1 | 370 | 0.2 |  |
| CC(C)N1CCC(C(=O)NO)(S(=O)(=O)c2ccc(Sc3ccccc3)cc2)CC1 [Example 34, N-hydroxy-1-(1-methylethyl)-4-[[4-(phenylthio)phenyl]sulfonyl]-4-piperidinecarboxamide, Monohydrochloride] |  | 1.1 |  | 1.2 | IC50 (recombinant human MMP-1): > 10000 nM |
| CC(=O)N1CCC(C(=O)NO)(S(=O)(=O)c2ccc(Oc3ccc4c(c3)OCO4)cc2)CC1 [Example 37, 1-acetyl-4-[[4-(1,3-benzodioxol-5-yloxy)phenyl]sulfonyl]-N-hydroxy-4-piperidinecarboxamide, Monohydrochloride] |  | 0.2 | 1000 | 0.3 |  |
| C#CCN1CCC(C(=O)NO)(S(=O)(=O)c2ccc(Oc3cc(OC)cc(OC)c3)cc2)CC1 [Example 39, 4-[[4-(3,5-dimethoxyphenoxy)phenyl]sulfonyl]-N-hydroxy-1-(2-propynyl)-4-piperidinecarboxamide, Monohydrochloride] |  | 230 | > 10000 | 24.5 |  |
| C#CCN1CCC(C(=O)NO)(S(=O)(=O)c2ccc(Oc3cccc(C)c3)cc2)CC1 [Example 41, N-hydroxy-4-[[4-(3-methylphenoxy)phenyl]sulfonyl]-1-(2-propynyl)-4-piperidinecarboxamide, Monohydrochloride] |  | 0.15 | 1200 | 0.2 |  |
| C#CCN1CCC(C(=O)NO)(S(=O)(=O)c2ccc(SC3CCCC3)cc2)CC1 [Example 45, 4-[[4-(Cyclopentylthio)-phenyl]sulfonyl]-N-hydroxy-1-(2-propynyl)-4-piperidinecarboxamide, Monohydrochloride] |  | 2.5 | 8800 | 1.7 |  |

| Structure (SMILES) | IC50 (recombinant human MMP-1; Inhibition Table A) [nM] | IC50 (recombinant human MMP-2; [3]) [nM] | IC50 (recombinant human MMP-1; Inhibition Table B) [nM] | IC50 (recombinant human MMP-13; [4]) [nM] | further results |
| --- | --- | --- | --- | --- | --- |
| CC1(C)OCC(C(=O)NO)(S(=O)(=O)c2ccc(Oc3ccccc3)cc2)CO1 [Example 48] |  | 0.2 | 210 | 0.25 |  |
| O=C(NO)C1(S(=O)(=O)c2ccc(Sc3ccccc3)cc2)CCSCC1 [Example 49, tetrahydro-N-hydroxy-4-[[4-(phenylthio)phenyl]sulfonyl]-2H-thiopyran-4-carboxamide] |  | 76.9 | > 10000 | 90 |  |
| COc1ccc(Sc2ccc(S(=O)(=O)C3(C(=O)NO)CCSCC3)cc2)cc1 [Example 51, Tetrahydro-N-hydroxy-4-[[4-[(4-methoxypheny)thio]phenyl]sulfonyl]-2H-thiopyran-4-carboxamide] |  | 0.7 | 5500 | 1.3 |  |
| O=C(NO)C1(S(=O)(=O)c2ccc(Sc3ccccc3)cc2)CCS(=O)(=O)CC1 [Example 52] |  | 2.7 | > 10000 | 5.9 |  |
| NCCc1ccc(Oc2ccc(S(=O)(=O)C3(C(=O)NO)CCS(=O)(=O)CC3)cc2)cc1 [Example 54, 4-[[4-[4-(2-aminoethyl))-phenoxy]phenyl]sulfonyl]tetrahydro-N-hydroxy-2H-thiopyran-4-carboxamide 1,1-dioxide Monohydrochloride] |  | 60 | > 10000 | 120 |  |
| O=C(NOC1CCCCO1)C1(S(=O)(=O)c2ccc(F)cc2)CCOCC1 (centres unmarked) [Example 55, 4-[(4-fluorophenyl)-sulfonyl]tetrahydro-N-[(tetrahydro-2H-pyran-2-yl)oxy]-2H-pyran-4-carboxamide] |  | 0.1 | 1200 | 0.3 |  |
| O=C(NO)C1(S(=O)(=O)c2ccc(Oc3ccc(F)c(F)c3)cc2)CCOCC1 [Example 56, 4-[[4-(3,4-difluorophenoxy)-phenyl]sulfonyl]tetrahydro-N-hydroxy-2H-pyran-4-carboxamide] |  | < 0.1 | 1500 | 0.15 |  |
| CNC(=O)C1CCCN(c2ccc(S(=O)(=O)C3(C(=O)NO)CCOCC3)cc2)C1 (centres unmarked) [Example 139] |  | 1000 |  |  |  |
| O=C(C1CCCN(c2ccc(S(=O)(=O)C3(C(=O)NO)CCOCC3)cc2)C1)N1CCOCC1 (centres unmarked) [Example 140] |  | 1000 |  |  |  |
| C[C@@H]1CN(C(=O)C2CCCN(c3ccc(S(=O)(=O)C4(C(=O)NO)CCOCC4)cc3)C2)C[C@H](C)O1 (some centres unmarked) [Example 169] |  |  | 10000 |  |  |
| O=C(C1CCCN(c2ccc(S(=O)(=O)C3(C(=O)NO)CCOCC3)cc2)C1)N1CCCC2CCCCC21 (centres unmarked) [Example 170] |  |  | 10000 |  |  |
| N[C@H]1CCN(C(=O)C2CCN(c3ccc(S(=O)(=O)C4(C(=O)NO)CCOCC4)cc3)CC2)C1 [Example 175] |  |  | 10000 |  |  |
| C[C@@H]1CN(C(=O)C2CCN(c3ccc(S(=O)(=O)C4(C(=O)NO)CCOCC4)cc3)CC2)C[C@H](C)O1 [Example 176] |  |  | > 10000 |  |  |
| O=C(C1CCN(c2ccc(S(=O)(=O)C3(C(=O)NO)CCOCC3)cc2)CC1)N1CCCC1 [Example 179] |  |  |  | 100 |  |
| CCCCNC(=O)C1CCN(c2ccc(S(=O)(=O)C3(C(=O)NO)CCOCC3)cc2)CC1 [Example 181] |  |  | 10000 |  |  |
| O=C(NC1CCCCCC1)C1CCN(c2ccc(S(=O)(=O)C3(C(=O)NO)CCOCC3)cc2)CC1 [Example 194] |  |  | 10000 |  |  |
| O=C(NCc1ccncc1)C1CCN(c2ccc(S(=O)(=O)C3(C(=O)NO)CCOCC3)cc2)CC1 [Example 195] |  | 100 | 10000 |  |  |
| COCCN1CCC(C(N)=O)(S(=O)(=O)c2ccc(Oc3ccc(OC(F)(F)F)cc3)cc2)CC1 [Example 444, 1-(2-methoxyethyl)-4-[[4-[4-(trifluoromethoxy)phenoxy]phenyl]sulfonyl]-4-piperidinecarboxamide] |  |  |  |  | IC50 (recombinant human MMP-1): > 10000 nM |
| C#CCN1CCC(C(N)=O)(S(=O)(=O)c2ccc(Sc3ccccc3)cc2)CC1 [Example 445, 4-[(4-phenylthiophenyl)sulfonyl]-1-(2—propynyl)-4-piperidinecarboxamide] |  |  | > 10000 |  |  |
